# Results as given in patent publication US11541028B2, “Peptide pharmaceuticals for treatment of NASH and other disorders” (Mederis Diabetes LLC, priority 2018, dated 2023).
# Bridge positions count the residues as written; N and C are the ends. Square brackets hold non-standard residues; d marks the D form. Peptide text beside a SMILES is read from it. * marks the point of attachment. X1 = CCCCCCCCCCCCCCCCO[C@@H]1O[C@H](CO[C@H]2O[C@H](C(=O)*)[C@H](O)[C@H](O)[C@H]2O)[C@@H](O)[C@H](O)[C@H]1O; X2 = CCCCCCCCCCCCCCO[C@@H]1O[C@H](CO[C@H]2O[C@H](C(=O)*)[C@H](O)[C@H](O)[C@H]2O)[C@@H](O)[C@H](O)[C@H]1O; βGlcA(1-O-hexadecyl) = CCCCCCCCCCCCCCCCO[C@@H]1O[C@H](C(=O)*)[C@@H](O)[C@H](O)[C@H]1O; GlcA(1β-O-tetradecyl) = CCCCCCCCCCCCCCO[C@@H]1O[C@H](C(=O)*)[C@@H](O)[C@H](O)[C@H]1O; Aib = CC(C)(N)C(=O)O
# Experiments:
# [1] = target: T1, human GLP-1 receptor (Homo sapiens, UniProt P43220); experiment: DiscoveRx LeadHunter cellular assay, cAMP stimulation, GLP-1 receptor in CHO cells; assay type: cell-based; details: human GLP-1 receptor in CHO cells (DiscoveRx); read-out: EC50 cAMP GLP-1 R
# T1 construct: host or cells: CHO cells
# Procedure: (§1) A further series of cellular assays was carried out with standard cellular assays (DiscoveRx, LeadHunter assays) using readout of cAMP stimulation or arrestin activation. Compounds were weighed precisely in an amount of about 1 mg and shipped to DiscoveRx for dilution and assay.
# [2] = target: T2, human glucagon receptor (Homo sapiens, UniProt P47871); experiment: DiscoveRx LeadHunter cellular assay, cAMP stimulation, glucagon receptor in CHO cells; assay type: cell-based
# T2 construct: host or cells: CHO cells
# T2 sequence (P47871 26-477): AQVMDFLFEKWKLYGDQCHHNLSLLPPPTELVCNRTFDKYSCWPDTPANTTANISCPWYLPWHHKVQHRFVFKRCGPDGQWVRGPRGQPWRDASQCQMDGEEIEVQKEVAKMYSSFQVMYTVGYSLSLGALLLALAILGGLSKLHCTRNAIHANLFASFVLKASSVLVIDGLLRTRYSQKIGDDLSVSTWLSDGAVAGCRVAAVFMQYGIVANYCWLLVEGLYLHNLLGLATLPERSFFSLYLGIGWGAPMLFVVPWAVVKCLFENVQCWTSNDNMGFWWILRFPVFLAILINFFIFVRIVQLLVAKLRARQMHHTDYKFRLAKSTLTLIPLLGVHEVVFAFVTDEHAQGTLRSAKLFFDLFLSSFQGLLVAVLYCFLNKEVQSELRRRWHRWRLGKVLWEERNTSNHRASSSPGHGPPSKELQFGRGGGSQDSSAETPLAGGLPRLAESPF
# Procedure: as §1
# T1 sequence (P43220 24-463): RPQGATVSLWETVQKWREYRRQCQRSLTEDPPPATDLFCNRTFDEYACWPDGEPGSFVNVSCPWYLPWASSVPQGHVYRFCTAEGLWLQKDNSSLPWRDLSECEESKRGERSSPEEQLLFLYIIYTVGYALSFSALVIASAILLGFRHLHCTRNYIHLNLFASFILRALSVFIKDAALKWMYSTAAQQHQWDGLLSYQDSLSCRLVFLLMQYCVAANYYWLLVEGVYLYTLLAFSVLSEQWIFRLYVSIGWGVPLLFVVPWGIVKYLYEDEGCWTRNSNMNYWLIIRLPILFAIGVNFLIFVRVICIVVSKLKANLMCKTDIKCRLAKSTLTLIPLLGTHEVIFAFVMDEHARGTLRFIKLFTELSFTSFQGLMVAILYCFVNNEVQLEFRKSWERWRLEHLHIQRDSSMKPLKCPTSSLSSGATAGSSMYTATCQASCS
Compound,EC50 [1] [pM],EC50 [2] [pM]
CCCCCCCCCCO[C@@H]1O[C@H](C(=O)N[C@@H](CCC(=O)N[C@@H](CCC(=O)NCCCC[C@H](NC(=O)[C@@H](NC(=O)[C@H](Cc2ccccc2)NC(=O)[C@H](CCC(=O)O)NC(=O)[C@@H]2CCCCNC(=O)CC[C@H](NC(=O)[C@H](CC(=O)O)NC(=O)[C@H](CC(C)C)NC(=O)[C@H](Cc3ccc(O)cc3)NC(=O)[C@H](CCCCN)NC(=O)[C@H](CO)NC(=O)[C@H](Cc3ccc(O)cc3)NC(=O)[C@H](CC(=O)O)NC(=O)[C@H](CO)NC(=O)[C@@H](NC(=O)[C@H](Cc3ccccc3)NC(=O)[C@@H](NC(=O)CNC(=O)[C@H](CCC(N)=O)NC(=O)C(C)(C)NC(=O)[C@@H](N)Cc3c[nH]cn3)[C@@H](C)O)[C@@H](C)O)C(=O)N[C@@H](CCC(N)=O)C(=O)N[C@@H](C)C(=O)N[C@@H](C)C(=O)N2)[C@@H](C)CC)C(=O)N[C@@H](Cc2c[nH]c3ccccc23)C(=O)N[C@@H](CC(C)C)C(=O)N[C@@H](CC(C)C)C(=O)N[C@@H](CCC(N)=O)C(=O)N[C@H](C(N)=O)[C@@H](C)O)C(=O)O)C(=O)O)[C@@H](O)[C@H](O)[C@H]1O [EU-A1722],6,12
CCCCCCCCCCCCO[C@@H]1O[C@H](C(=O)N[C@@H](CCC(=O)N[C@@H](CCC(=O)NCCCC[C@H](NC(=O)[C@@H](NC(=O)[C@H](Cc2ccccc2)NC(=O)[C@H](CCC(=O)O)NC(=O)[C@@H]2CCCCNC(=O)CC[C@H](NC(=O)[C@H](CC(=O)O)NC(=O)[C@H](CC(C)C)NC(=O)[C@H](Cc3ccc(O)cc3)NC(=O)[C@H](CCCCN)NC(=O)[C@H](CO)NC(=O)[C@H](Cc3ccc(O)cc3)NC(=O)[C@H](CC(=O)O)NC(=O)[C@H](CO)NC(=O)[C@@H](NC(=O)[C@H](Cc3ccccc3)NC(=O)[C@@H](NC(=O)CNC(=O)[C@H](CCC(N)=O)NC(=O)C(C)(C)NC(=O)[C@@H](N)Cc3c[nH]cn3)[C@@H](C)O)[C@@H](C)O)C(=O)N[C@@H](CCC(N)=O)C(=O)N[C@@H](C)C(=O)N[C@@H](C)C(=O)N2)[C@@H](C)CC)C(=O)N[C@@H](Cc2c[nH]c3ccccc23)C(=O)N[C@@H](CC(C)C)C(=O)N[C@@H](CC(C)C)C(=O)N[C@@H](CCC(N)=O)C(=O)N[C@H](C(N)=O)[C@@H](C)O)C(=O)O)C(=O)O)[C@@H](O)[C@H](O)[C@H]1O [EU-A1723],28,62
CCCCCCCCCCCCCCO[C@@H]1O[C@H](CO[C@H]2O[C@H](C(=O)NCCCC[C@H](NC(=O)[C@H](C)NC(=O)[C@H](C)NC(=O)[C@H](CCC(N)=O)NC(=O)[C@H](CO)NC(=O)[C@H](CC(=O)O)NC(=O)[C@@H]3CCCCNC(=O)CC[C@H](NC(=O)[C@H](CC(=O)O)NC(=O)[C@H](CO)NC(=O)[C@@H](NC(=O)[C@H](Cc4ccccc4)NC(=O)[C@@H](NC(=O)CNC(=O)[C@H](CCC(N)=O)NC(=O)C(C)(C)NC(=O)[C@@H](N)Cc4c[nH]cn4)[C@@H](C)O)[C@@H](C)O)C(=O)N[C@@H](CO)C(=O)N[C@@H](CCCCN)C(=O)N[C@@H](Cc4ccc(O)cc4)C(=O)N3)C(=O)N[C@@H](CCC(=O)O)C(=O)N[C@@H](Cc3ccccc3)C(=O)N[C@H](C(=O)N[C@@H](CCC(N)=O)C(=O)N[C@@H](Cc3c[nH]c4ccccc34)C(=O)N[C@@H](CC(C)C)C(=O)N[C@@H](CC(C)C)C(=O)N[C@@H](CCC(N)=O)C(=O)N[C@H](C(N)=O)[C@@H](C)O)[C@@H](C)CC)[C@H](O)[C@H](O)[C@H]2O)[C@@H](O)[C@H](O)[C@H]1O [EU-A1729] (H-H[Aib]QGTFTSDESKYKDSQAAK(X2)EFIQWLLQT-NH2; lactam 10-14),6,558
CCCCCCCCCCCCCCCCO[C@@H]1O[C@H](CO[C@H]2O[C@H](C(=O)NCCCC[C@H](NC(=O)[C@H](C)NC(=O)[C@H](C)NC(=O)[C@H](CCC(N)=O)NC(=O)[C@H](CO)NC(=O)[C@H](CC(=O)O)NC(=O)[C@@H]3CCCCNC(=O)CC[C@H](NC(=O)[C@H](CC(=O)O)NC(=O)[C@H](CO)NC(=O)[C@@H](NC(=O)[C@H](Cc4ccccc4)NC(=O)[C@@H](NC(=O)CNC(=O)[C@H](CCC(N)=O)NC(=O)C(C)(C)NC(=O)[C@@H](N)Cc4c[nH]cn4)[C@@H](C)O)[C@@H](C)O)C(=O)N[C@@H](CO)C(=O)N[C@@H](CCCCN)C(=O)N[C@@H](Cc4ccc(O)cc4)C(=O)N3)C(=O)N[C@@H](CCC(=O)O)C(=O)N[C@@H](Cc3ccccc3)C(=O)N[C@H](C(=O)N[C@@H](CCC(N)=O)C(=O)N[C@@H](Cc3c[nH]c4ccccc34)C(=O)N[C@@H](CC(C)C)C(=O)N[C@@H](CC(C)C)C(=O)N[C@@H](CCC(N)=O)C(=O)N[C@H](C(N)=O)[C@@H](C)O)[C@@H](C)CC)[C@H](O)[C@H](O)[C@H]2O)[C@@H](O)[C@H](O)[C@H]1O [EU-A1730] (H-H[Aib]QGTFTSDESKYKDSQAAK(X1)EFIQWLLQT-NH2; lactam 10-14; N-terminus assumed),8,1170
CCCCCCCCCCCCCCO[C@@H]1O[C@H](C(=O)NCCCC[C@H](NC(=O)[C@H](C)NC(=O)[C@H](C)NC(=O)[C@H](CCC(N)=O)NC(=O)[C@H](CO)NC(=O)[C@H](CC(=O)O)NC(=O)[C@@H]2CCCCNC(=O)CC[C@H](NC(=O)[C@H](CC(=O)O)NC(=O)[C@H](CO)NC(=O)[C@@H](NC(=O)[C@H](Cc3ccccc3)NC(=O)[C@@H](NC(=O)CNC(=O)[C@H](CCC(N)=O)NC(=O)C(C)(C)NC(=O)[C@@H](N)Cc3c[nH]cn3)[C@@H](C)O)[C@@H](C)O)C(=O)N[C@@H](CO)C(=O)N[C@@H](CCCCN)C(=O)N[C@@H](Cc3ccc(O)cc3)C(=O)N2)C(=O)N[C@@H](CCC(=O)O)C(=O)N[C@@H](Cc2ccccc2)C(=O)N[C@H](C(=O)N[C@@H](CCC(N)=O)C(=O)N[C@@H](Cc2c[nH]c3ccccc23)C(=O)N[C@@H](CC(C)C)C(=O)N[C@@H](CC(C)C)C(=O)N[C@@H](CCC(N)=O)C(=O)N[C@H](C(N)=O)[C@@H](C)O)[C@@H](C)CC)[C@@H](O)[C@H](O)[C@H]1O [EU-A1734] (H-H[Aib]QGTFTSDESKYKDSQAAK(GlcA(1β-O-tetradecyl))EFIQWLLQT-NH2; lactam 10-14; N-terminus assumed),6,387
CCCCCCCCCCCCCCCCO[C@@H]1O[C@H](C(=O)NCCCC[C@H](NC(=O)[C@H](C)NC(=O)[C@H](C)NC(=O)[C@H](CCC(N)=O)NC(=O)[C@H](CO)NC(=O)[C@H](CC(=O)O)NC(=O)[C@@H]2CCCCNC(=O)CC[C@H](NC(=O)[C@H](CC(=O)O)NC(=O)[C@H](CO)NC(=O)[C@@H](NC(=O)[C@H](Cc3ccccc3)NC(=O)[C@@H](NC(=O)CNC(=O)[C@H](CCC(N)=O)NC(=O)C(C)(C)NC(=O)[C@@H](N)Cc3c[nH]cn3)[C@@H](C)O)[C@@H](C)O)C(=O)N[C@@H](CO)C(=O)N[C@@H](CCCCN)C(=O)N[C@@H](Cc3ccc(O)cc3)C(=O)N2)C(=O)N[C@@H](CCC(=O)O)C(=O)N[C@@H](Cc2ccccc2)C(=O)N[C@H](C(=O)N[C@@H](CCC(N)=O)C(=O)N[C@@H](Cc2c[nH]c3ccccc23)C(=O)N[C@@H](CC(C)C)C(=O)N[C@@H](CC(C)C)C(=O)N[C@@H](CCC(N)=O)C(=O)N[C@H](C(N)=O)[C@@H](C)O)[C@@H](C)CC)[C@@H](O)[C@H](O)[C@H]1O [EU-A1735] (H-H[Aib]QGTFTSDESKYKDSQAAK(βGlcA(1-O-hexadecyl))EFIQWLLQT-NH2; lactam 10-14; N-terminus assumed),8,931
CCCCCCCCCCCCCCO[C@@H]1O[C@H](CO[C@H]2O[C@H](C(=O)NCCCC[C@H](NC(=O)[C@H](C)NC(=O)[C@H](C)NC(=O)[C@H](CCC(N)=O)NC(=O)[C@@H]3CCCCNC(=O)CC[C@H](NC(=O)[C@H](CO)NC(=O)[C@H](Cc4ccc(O)cc4)NC(=O)[C@H](CC(=O)O)NC(=O)[C@H](CO)NC(=O)[C@@H](NC(=O)[C@H](Cc4ccccc4)NC(=O)[C@@H](NC(=O)CNC(=O)[C@H](CCC(N)=O)NC(=O)C(C)(C)NC(=O)[C@@H](N)Cc4c[nH]cn4)[C@@H](C)O)[C@@H](C)O)C(=O)N[C@@H](Cc4ccc(O)cc4)C(=O)N[C@@H](CC(C)C)C(=O)N[C@@H](CC(=O)O)C(=O)N3)C(=O)N[C@@H](CCC(=O)O)C(=O)N[C@@H](Cc3ccccc3)C(=O)N[C@H](C(=O)N[C@@H](CCC(N)=O)C(=O)N[C@@H](Cc3c[nH]c4ccccc34)C(=O)N[C@@H](CC(C)C)C(=O)N[C@@H](CC(C)C)C(=O)N[C@@H](CCC(N)=O)C(=O)N[C@H](C(N)=O)[C@@H](C)O)[C@@H](C)CC)[C@H](O)[C@H](O)[C@H]2O)[C@@H](O)[C@H](O)[C@H]1O [EU-A1739] (H-H[Aib]QGTFTSDYSEYLDKQAAK(X2)EFIQWLLQT-NH2; lactam 12-16; N-terminus assumed),56,2220
CCCCCCCCCCCCCCCCO[C@@H]1O[C@H](CO[C@H]2O[C@H](C(=O)NCCCC[C@H](NC(=O)[C@H](C)NC(=O)[C@H](C)NC(=O)[C@H](CCC(N)=O)NC(=O)[C@@H]3CCCCNC(=O)CC[C@H](NC(=O)[C@H](CO)NC(=O)[C@H](Cc4ccc(O)cc4)NC(=O)[C@H](CC(=O)O)NC(=O)[C@H](CO)NC(=O)[C@@H](NC(=O)[C@H](Cc4ccccc4)NC(=O)[C@@H](NC(=O)CNC(=O)[C@H](CCC(N)=O)NC(=O)C(C)(C)NC(=O)[C@@H](N)Cc4c[nH]cn4)[C@@H](C)O)[C@@H](C)O)C(=O)N[C@@H](Cc4ccc(O)cc4)C(=O)N[C@@H](CC(C)C)C(=O)N[C@@H](CC(=O)O)C(=O)N3)C(=O)N[C@@H](CCC(=O)O)C(=O)N[C@@H](Cc3ccccc3)C(=O)N[C@H](C(=O)N[C@@H](CCC(N)=O)C(=O)N[C@@H](Cc3c[nH]c4ccccc34)C(=O)N[C@@H](CC(C)C)C(=O)N[C@@H](CC(C)C)C(=O)N[C@@H](CCC(N)=O)C(=O)N[C@H](C(N)=O)[C@@H](C)O)[C@@H](C)CC)[C@H](O)[C@H](O)[C@H]2O)[C@@H](O)[C@H](O)[C@H]1O [EU-A1740] (H-H[Aib]QGTFTSDYSEYLDKQAAK(X1)EFIQWLLQT-NH2; lactam 12-16; N-terminus assumed),77,3820
